From patent publication US11473145B2, “Methods for determining whether a patient suffering from rhabdomyolysis achieves a response with a TLR9 antagonist” (INSERM (INSTITUT NATIONAL DE LA SANTÉ ET DE LA RECHERCHE …, priority 2017, dated 2022)
Entries after “also recorded” stand apart in the source; their conditions may differ.

Columns and labels:
Assay type in all cases: in vivo, human
[1] = system: patients with lipin-1 disease; assay: Six-minute walk test (physical maximum capacities) in patients treated by Plaquenil
Text: (§1) We treated in 2016 two patients (P1, P2) with lipin-1 disease by hydroxychloroquine sulphate (plaquenil®) and two patients (P3, P4) with dantrolene sodium after obtaining the authorization by the CPP of Paris Descarte University (Comité pour la protection des personnes). Moreover the patient (P5) has been treated for one month by plaquenil® because of their cardiac dysfunction, their fatigability and their sleep disorders. Indeed we think that plaquenil® works well on the two patients treated (P1, P2) and P5's state was considered sufficiently serious to propose it. Plaquenil® was given at a dose of 6 mg/Kg/day into 1 intake (dose usually given in Lupus disease) to P1, P2 and P5.
(§2) Patient 1 corrected their clinical muscle phenotype (Table 1). Physical maximum capacities were measured using six-minute walk (TC6′), Short-Form life quality by using Questionary (SF-36) to assess QOL for parent and for patient, and a self-assessment pain scale (EVA). […] Since then they have resumed treatment.

[2] = system: patients with lipin-1 disease; assay: Life quality questionnary PESDQL children
Text: as §1, §2

[3] = system: patients with lipin-1 disease; assay: Life quality questionnary PESDQL parent
Text: as §1, §2

[4] = system: patients with lipin-1 disease; assay: Self-assessment pain scale (EVA)
Text: as §1, §2

IL-6 = IL-6 secretion in serum measured by ELISA (serum inflammatory profile); conditions: for IL-6 concentration in serum: lipin-1 deficient patients
Procedure: FIG. 1. Inflammatory profile in serum of lipin-1 deficient patients in vivo. Above: IL-6 secretion in serum was measured by ELISA.
as §1
(§3) Both patients 1 and 2 treated in vivo with Plaquenil® normalized their serum inflammatory profile in one month after the start of treatment (FIG. 1). IL-6 secretion increased in plasma when the two patients stopped their treatment (FIG. 1). The accumulation of mtDNA in plasma of the two patients before treatment decreases under treatment by Plaquenil® (FIG. 2). After Plaquenil® was stopped, the accumulation of mtDNA reappeared, then normalized when treatment was resumed. We observe a correlation between variations of IL-6 and mtDNA accumulation levels, and with the compliance of the treatment.

[5] = system: mitochondrial DNA (mtDNA); assay: Quantity of mitochondrial DNA (qPCR) in plasma; conditions: two patients (P1, P2)
Text: FIG. 2. Quantity of mitochondrial DNA (qPCR) in plasma of two patients.
as §1, §3

Creatine kinase (CK) = assay: Serum Creatine kinase (CK) level
Text: as §1, §3, §2

[6] = system: patients with lipin-1 disease; assay: Clinical follow-up: rhabdomyolysis episodes, muscle phenotype and muscle pain
Text: as §1, §3, §2

[7] = the two patients, treatment resumed, winter 2016-2017

## CCN(CCO)CCCC(C)Nc1ccnc2cc(Cl)ccc12 (stereo not shown) [Plaquenil®, hydroxychloroquine sulphate]
[1]; patient P1, M 2 of treatment, 6 mg/Kg/day, M 0 before treatment 450 m
  Six-minute walk test (normal 560-740): P1: 540 m
[1]; patient P1, M 5 of treatment, M 0 450 m
  Six-minute walk test (normal 560-740): P1: 520 m
[1]; patient P1, M 9, after M 6-M 8 interruption of treatment, M 0 450 m
  Six-minute walk test (normal 560-740): P1: 539 m
[1]; patient P1, M 16, treatment resumed, M 0 450 m
  Six-minute walk test (normal 560-740): P1: 530
[1]; patient P2, M 2 of treatment, 6 mg/Kg/day, M 0 before treatment 510 m
  Six-minute walk test (normal 560-740): P2: 550 m
[1]; patient P2, M 5 of treatment, M 0 510 m
  Six-minute walk test (normal 560-740): P2: 595 m
[1]; patient P2, M 9, after M 6-M 8 interruption of treatment, M 0 510 m
  Six-minute walk test (normal 560-740): P2: 587 m
[1]; patient P2, M 16, treatment resumed, M 0 510 m
  Six-minute walk test (normal 560-740): P2: 590
[2]; patient P1, M 2 of treatment, M 0 before treatment 26
  Questionnary (0: very well - 92: very bad) PESDQL children: P1: 12
[2]; patient P1, M 5 of treatment, M 0 26
  Questionnary (0: very well - 92: very bad) PESDQL children: P1: 11
[2]; patient P1, M 9, after M 6-M 8 interruption of treatment, M 0 26
  Questionnary (0: very well - 92: very bad) PESDQL children: P1: 38
[2]; patient P1, M 16, treatment resumed, M 0 26
  Questionnary (0: very well - 92: very bad) PESDQL children: P1: 8
[2]; patient P2, M 2 of treatment, M 0 before treatment 45
  Questionnary (0: very well - 92: very bad) PESDQL children: P2: 32
[2]; patient P2, M 5 of treatment, M 0 45
  Questionnary (0: very well - 92: very bad) PESDQL children: P2: 35
[2]; patient P2, M 9, after M 6-M 8 interruption of treatment, M 0 45
  Questionnary (0: very well - 92: very bad) PESDQL children: P2: 47
[2]; patient P2, M 16, treatment resumed, M 0 45
  Questionnary (0: very well - 92: very bad) PESDQL children: P2: 30
[3]; patient P1, M 2 of treatment, M 0 before treatment 30
  Questionnary PESDQL parent (0: very well - 92: very bad): P1: 22
[3]; patient P1, M 5 of treatment, M 0 30
  Questionnary PESDQL parent (0: very well - 92: very bad): P1: 12
[3]; patient P1, M 9, after M 6-M 8 interruption of treatment, M 0 30
  Questionnary PESDQL parent (0: very well - 92: very bad): P1: 31
[3]; patient P1, M 16, treatment resumed, M 0 30
  Questionnary PESDQL parent (0: very well - 92: very bad): P1: 20
[3]; patient P2, M 2 of treatment, M 0 before treatment 40
  Questionnary PESDQL parent (0: very well - 92: very bad): P2: 42
[3]; patient P2, M 5 of treatment, M 0 40
  Questionnary PESDQL parent (0: very well - 92: very bad): P2: 33
[3]; patient P2, M 9, after M 6-M 8 interruption of treatment, M 0 40
  Questionnary PESDQL parent (0: very well - 92: very bad): P2: 50
[3]; patient P2, M 16, treatment resumed, M 0 40
  Questionnary PESDQL parent (0: very well - 92: very bad): P2: 35
[4]; patient P1, M 2 of treatment, M 0 before treatment 24
  Pain Evaluation (EVA) (4: not painful - 40: very painful): P1: 16
[4]; patient P1, M 5 of treatment, M 0 24
  Pain Evaluation (EVA) (4: not painful - 40: very painful): P1: 0
[4]; patient P1, M 9, after M 6-M 8 interruption of treatment, M 0 24
  Pain Evaluation (EVA) (4: not painful - 40: very painful): P1: 4
[4]; patient P1, M 16, treatment resumed, M 0 24
  Pain Evaluation (EVA) (4: not painful - 40: very painful): P1: 0
[4]; patient P2, M 2 of treatment, M 0 before treatment 18
  Pain Evaluation (EVA) (4: not painful - 40: very painful): P2: 12
[4]; patient P2, M 5 of treatment, M 0 18
  Pain Evaluation (EVA) (4: not painful - 40: very painful): P2: 0
[4]; patient P2, M 9, after M 6-M 8 interruption of treatment, M 0 18
  Pain Evaluation (EVA) (4: not painful - 40: very painful): P2: 16
[4]; patient P2, M 16, treatment resumed, M 0 18
  Pain Evaluation (EVA) (4: not painful - 40: very painful): P2: 0
IL-6; under treatment
  IL-6 concentration in serum: decreases
IL-6; when the treatment is resumed
  IL-6 concentration in serum: decreases again
IL-6; patients 1 and 2, one month after the start of treatment, 6 mg/Kg/day
  serum inflammatory profile: normalized
IL-6; the two patients, after interruption of treatment
  IL-6 secretion (serum/plasma): increased
[5]; after treatment was stopped
  accumulation of mtDNA in plasma: reappeared; also recorded: increases
[5]; under treatment versus before treatment
  accumulation of mtDNA in plasma: decreases
[5]; when treatment was resumed
  accumulation of mtDNA in plasma: normalized; also recorded: decreases again
Creatine kinase (CK); patient 1, rhabdomyolysis after treatment was stopped
  CK: 160 000 U/L
Creatine kinase (CK); patient 2, rhabdomyolysis after treatment was stopped
  CK: 300 000 U/L
Creatine kinase (CK); patients 1 and 2, under treatment
  level of serum Creatine kinase (CK): decreased
[6]; Patient 1, under treatment
  clinical muscle phenotype: corrected
[6]; patient 2, under treatment
  pain: disappeared
  walking ability: did not improve markedly
[6]; patients 1 and 2, during 6 months of treatment
  new episode of rhabdomyolysis: did not have any new episode of rhabdomyolysis
[6]; [7]
  muscle pain: did not have muscle pain
  rhabdomyolysis: did not do rhabdomyolysis
[6]; the two patients, treatment stopped after 6 months (lack of compliance), hospitalized in intensive care
  rhabdomyolysis after stopping treatment: immediately underwent extensive rhabdomyolysis
